# The supplement of paper PMC4932681
# Assays:
# Assay in all cases: viability inhibition at highest dose (% inhibition); higher = more growth inhibition
# [1] = tested on: BT-474 Tam1; conditions: 4-OH-tamoxifen in medium 1 µM; 72 h
# How it was run: (§1)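 Drug sensitivity score, relative IC50 as the curve midpoint, and top-dose inhibition were derived from logistic dose–response fits in the Breeze pipeline. These fits used CellTiter-Glo viability, read on a PHERAstar and normalised to vehicle-only and positive controls. Breast cancer cell lines and resistant derivatives had been incubated for 72 h at 37 °C in 384-well plates holding library drugs at five concentrations spanning a 10 000-fold range. Resistant lines were grown in medium with 1 μM of the selecting drug.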
# [2] = tested on: T-47D; conditions: 72 h
# How it was run: as §1
# [3] = tested on: ZR-75-1; conditions: 72 h
# How it was run: as §1
# [4] = tested on: BT-474; conditions: 72 h
# How it was run: as §1
# [5] = tested on: ZR-75-1 Tam2; conditions: 4-OH-tamoxifen in medium 1 µM; 72 h
# How it was run: as §1
# [6] = tested on: BT-474 Tam2; conditions: 4-OH-tamoxifen in medium 1 µM; 72 h
# How it was run: as §1
# [7] = tested on: MCF-7 Tam1; conditions: 4-OH-tamoxifen in medium 1 µM; 72 h
# How it was run: as §1
# [8] = tested on: MCF-7; conditions: 72 h
# How it was run: as §1
# [9] = tested on: T-47D Tam2; conditions: 4-OH-tamoxifen in medium 1 µM; 72 h
# How it was run: as §1
# [10] = tested on: ZR-75-1 Tam1; conditions: 4-OH-tamoxifen in medium 1 µM; 72 h
# How it was run: as §1
# [11] = tested on: T-47D Tam1; conditions: 4-OH-tamoxifen in medium 1 µM; 72 h
# How it was run: as §1
Structure (SMILES),viability inhibition at highest dose [1],viability inhibition at highest dose ([2]; 4-OH-tamoxifen in medium 0 µM),viability inhibition at highest dose ([2]; 4-OH-tamoxifen in medium 1 µM),viability inhibition at highest dose ([3]; 4-OH-tamoxifen in medium 0 µM),viability inhibition at highest dose ([3]; 4-OH-tamoxifen in medium 1 µM),viability inhibition at highest dose ([4]; 4-OH-tamoxifen in medium 0 µM),viability inhibition at highest dose ([4]; 4-OH-tamoxifen in medium 1 µM),viability inhibition at highest dose [5],viability inhibition at highest dose [6],viability inhibition at highest dose [7],viability inhibition at highest dose ([8]; 4-OH-tamoxifen in medium 0 µM),viability inhibition at highest dose ([8]; 4-OH-tamoxifen in medium 1 µM),viability inhibition at highest dose [9],viability inhibition at highest dose [10],viability inhibition at highest dose [11]
Nc1cc(C(F)(F)F)c(-c2cc(N3CCOCC3)nc(N3CCOCC3)n2)cn1 [Buparlisib (BKM-120)] (drug 10000 nM),93.8,75.8,77.6,57.9,48.8,64.5,88.6,61.8,89.9,42.8,72.8,72.2,71.3,57,70.7
C#Cc1cccc(Nc2ncnc3cc(OCCOC)c(OCCOC)cc23)c1 [Erlotinib] (drug 10000 nM),94.4,20.8,9,3.58,12.2,43,94.5,10.9,87.1,12.5,4.3,0.353,40,14.6,39.8
COc1cc(OC2CCN(C)CC2)ccc1Nc1ncc2c(n1)n(C1CCCC1)c(=O)n2C [AZ 3146] (drug 10000 nM),74.5,27.1,14.1,20.8,22.9,9.21,77.2,24,25.9,11.7,24.5,15,26.5,19.6,20.1
N#CCNC(=O)c1ccc(-c2ccnc(Nc3ccc(N4CCOCC4)cc3)n2)cc1 [Momelotinib (CYT-387)] (drug 10000 nM),38.6,22.8,17.9,6.2,5.38,3.98,-26.5,8.52,31.1,43.1,48.5,69,40,7.45,39.2
O=NN(CCCl)C(=O)NCCCl [Carmustine] (drug 10000 nM),-0.31,-12.6,-5.73,-12.9,-8.4,-6.34,-3.07,0.516,4.36,-12.7,-2.85,5.33,2.64,-2.37,0.948
NCCCNCCSP(=O)(O)O [Amifostine] (drug 10000 nM),-0.954,-8.52,-1.52,-8.06,-7.66,-2.99,1.56,-10.8,-1.33,-11.7,-14.2,-5.03,7,1.78,-2.35
O=C(Nc1cccnc1)N1CCC(Cc2cccc(Oc3ccc(C(F)(F)F)cn3)c2)CC1 [PF-3845] (drug 10000 nM),95.4,40.6,25.3,30.5,51.3,72,81.8,49.9,95.7,29.1,53.1,58.6,36.1,39.4,52.3
"COc1cc2c(Oc3ccc4[nH]c(C)cc4c3F)ncnc2cc1OCCCN1CCCC1 [Cediranib (AZD2171, Recentin)] (drug 1000 nM)",15.2,2.79,7.26,9.26,4.94,1.02,39.4,5.44,6.19,1.79,11.5,2.46,2.12,4.06,2.94
CNC(=O)c1ccc(N2C(=S)N(c3ccc(C#N)c(C(F)(F)F)c3)C(=O)C2(C)C)cc1F [Enzalutamide (MDV 3100)] (drug 10000 nM),7.43,-6.05,1.03,-12.4,-0.801,-1.06,-10,5.9,14.2,5.74,-11.1,14.2,7.78,6.65,14
O=NN(CCCl)C(=O)NC1CCCCC1 [Lomustine] (drug 10000 nM),0.268,-10.8,-1.44,-11.7,-5.51,-2.85,4.76,-14.9,-2.72,-10.9,12.6,13.1,7.26,-0.686,-5.12
COc1cccc2c1C(=O)c1c(O)c3c(c(O)c1C2=O)C[C@@](O)(C(C)=O)C[C@@H]3O[C@H]1C[C@H](N)[C@H](O)[C@H](C)O1 [Daunorubicin] (drug 1000 nM),72.8,72.4,73.5,63.6,55.3,53.8,95.4,70.7,32.7,32.2,78.9,87.8,68.4,64.3,67.9
O=C(c1cc(Cc2n[nH]c(=O)c3ccccc23)ccc1F)N1CCN(C(=O)C2CC2)CC1 [Olaparib] (drug 10000 nM),11.7,10.8,0.545,2.83,-2.23,-3.98,-18.1,6.09,6.64,-1.72,-12.5,18,13.8,9.56,3.42
COc1cc([C@@H]2c3cc4c(cc3[C@@H](O[C@@H]3O[C@@H]5CO[C@@H](c6cccs6)O[C@H]5[C@H](O)[C@H]3O)[C@H]3COC(=O)[C@H]23)OCO4)cc(OC)c1O [Teniposide] (drug 10000 nM),62.6,54.1,36.5,43.9,35.7,54.2,87.3,42.4,13.2,18,55.1,28,46.3,37,78.3
